One experiment has as its target T1, HSP90a protein (Homo sapiens, UniProt P07900).
T1 construct: purchased BPS Bioscience 50298
As to the kind of experiment: HSP90α-binding fluorescent polarization (FP) assay, BODIPY-labeled RNK04010 probe. The note with it: FP competition with RNK04010 (BODIPY-labeled), 5 nM, 300 min at 25° C. In short, it runs like this:
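N-terminal HSP90a construct; tracer 5 nM final (FITC-geldanamycin or BODIPY-RNK04010, a labeled triazolone binder). Compounds 20 μM–5.2 nM, 2.5-fold steps. 25° C, 120 min (FITC) / 300 min (BODIPY). FP readout.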

For experiment [1], the system named is MIA PaCa-2 human pancreatic carcinoma. As to the kind of experiment: MIA PaCa-2 CCK-8 proliferation assay. It is filed as cell-based. The note with it: Homo sapiens, MIA PaCa-2, 72 h, MIA PaCa-2 cells. In outline:
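MIA PaCa-2 (2 copies KRAS(G12C)), NCI-H358 and NCI-H23 (1 copy KRAS(G12C) each) were exposed to compound in 3-fold serial dilutions from 20 μM to 1.02 nM. Viability was read as CCK-8 absorbance, and % inhibition was computed against DMSO-treated cells, with cell-free DMSO medium as blank.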
Background: Formazan colour is commonly taken as a measure of viable cells.

The target in experiment [2] is T2, KRAS(G12C) (Homo sapiens, UniProt P01116, G12C). As to the kind of experiment: KRAS(G12C)/SOS1 homogeneous time-resolved fluorescence (HTRF) assay. Further details: purchased Cisbio 63ADK000CB16PEG. The conditions noted are these: absence of GTP, 4° C. for 3 hr, read-out: KRAS (G12C) binding. In outline:
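Three-hour incubation at 4 °C of 3-fold compound dilutions (lowest 1.02 nM) with KRAS(G12C), SOS1 and detection reagents, GTP absent. Disruption of the KRAS(G12C)/SOS1 complex detected by time-resolved fluorescence.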
For orientation: TR-FRET usually uses a lanthanide donor and a delayed reading to cut background.

Experiment [3] concerns the target T2, KRAS(G12C). As to the kind of experiment: KRAS(G12C) Western blot protein degradation assay in LU65A cells. It is filed as cell-based. The note with it: 6 hr. Also on record: LU65A human lung cancer cell line, which expresses KRAS(G12C); host or cells: LU65A. In short, it runs like this:
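KRAS levels read by fluorescent Western blot (β-actin as reference) on BCA-normalized lysates. Exposure to a compound concentration range at 37 °C lasted 6 hr in LU65A and 48 hr in MIA PaCa-2; DC50 taken as half-maximal degradation concentration.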
(In general: Immunoblotting shows a protein as a band on a membrane.)

T2 sequence (P01116 1-188 isoform P01116-2 G12C): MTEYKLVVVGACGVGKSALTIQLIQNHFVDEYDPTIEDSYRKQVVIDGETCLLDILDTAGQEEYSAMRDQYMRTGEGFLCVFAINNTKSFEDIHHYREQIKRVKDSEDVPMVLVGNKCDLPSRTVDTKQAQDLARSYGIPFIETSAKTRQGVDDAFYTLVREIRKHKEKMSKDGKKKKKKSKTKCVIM

One may read the EC50 as the concentration that produces a half-maximal response. A high value points to a less potent agent. Broadly, the DC50 is the concentration giving 50% degradation. Low values mean a more potent degrader, high ones a less potent degrader. As to `C=CC(=O)N1CCN(c2nc(OCC3CN(C(=O)C4CCN(Cc5ccc(-n6c(C(=O)NCC(F)(F)F)nnc6-c6cc(C(C)C)c(O)cc6O)cc5)CC4)C3)nc3c2CCN(c2cccc4cccc(Cl)c24)C3)C[C@@H]1CC#N` [Compound 220, (S)-4-(4-((4-(3-(((4-(4-acryloyl-3-(cyanomethyl)piperazin-1-yl)-7-(8-chloronaphthalen-1-yl)-5,6,7,8-tetrahydropyrido[3,4-d]pyrimidin-2-yl)oxy)methyl)azetidine-1-carbonyl)piperidin-1-yl)methyl)phenyl)-5-(2,4-dihydroxy-5-isopropylphenyl)-N-(2,2,2-trifluoroethyl)-4H-1,2,4-triazole-3-carboxamide], the IC50 at HSP90a protein was less than 0.1 µM; on KRAS(G12C) [2] it was 0.1 to 1 µM. In addition, the EC50 in experiment [1] was in the range of 0.1 to 1 µM. In addition, the DC50 at KRAS(G12C) [3] was more than 1 µM.
For `C=CC(=O)N1CCN(c2nc(OC[C@@H]3C[C@H](C(=O)N4CC5(CCN(Cc6ccc(-n7c(O)nnc7-c7cc(C(C)C)c(O)cc7O)cc6)CC5)C4)CN3C)nc3c2CCN(c2cccc4cccc(Cl)c24)C3)C[C@@H]1CC#N` [Compound 230, 2-[(2S)-4-[7-(8-chloronaphthalen-1-yl)-2-{[(2S,4S)-4-[7-({4-[3-(2,4-dihydroxy-5-isopropylphenyl)-5-hydroxy-1,2,4-triazol-4-yl]phenyl}methyl)-2,7-diazaspiro[3.5]nonane-2-carbonyl]-1-methylpyrrolidin-2-yl]methoxy}-5H,6H,8H-pyrido[3,4-d]pyrimidin-4-yl]-1-(prop-2-enoyl)piperazin-2-yl]acetonitrile], the IC50 at HSP90a protein and at KRAS(G12C) [2] was less than 0.1 µM throughout. The same molecule showed an EC50 in experiment [1] of 0.1 to 1 µM. Moreover, the DC50 at KRAS(G12C) [3] is more than 1 µM.
Take `C=CC(=O)N1CCN(c2nc(OC[C@@H]3CC[C@H](CN4CCN(C(=O)C5CCN(Cc6ccc(-n7c(O)nnc7-c7cc(C)c(O)cc7O)cc6)CC5)CC4)N3C)nc3c2CCN(c2cccc4cccc(Cl)c24)C3)C[C@@H]1CC#N` [Compound 319, 2-[(2S)-4-[7-(8-chloronaphthalen-1-yl)-2-{[(2S,5R)-5-({4-[1-({4-[3-(2,4-dihydroxy-5-methylphenyl)-5-hydroxy-1,2,4-triazol-4-yl]phenyl}methyl)piperidine-4-carbonyl]piperazin-1-yl}methyl)-1-methylpyrrolidin-2-yl]methoxy}-5H,6H,8H-pyrido [3,4-d]pyrimidin-4-yl]-1-(prop-2-enoyl)piperazin-2-yl]acetonitrile]: the IC50 at HSP90a protein and on KRAS(G12C) [2] was less than 0.1 µM throughout. The EC50 in experiment [1] fell in the range of 0.1 to 1 µM. On KRAS(G12C) [3], this molecule registered a DC50 of 0.1 to 1 µM.
For the molecule `C=CC(=O)N1CCN(c2nc(OC[C@@H]3C[C@H](N4CCC(C(=O)N5CCN(Cc6ccc(-n7c(O)nnc7-c7cc(CC)c(O)cc7O)cc6)CC5)CC4)CN3C)nc3c2CCN(c2cccc4cccc(Cl)c24)C3)C[C@@H]1CC#N` [Compound 233, 2-[(2S)-4-[7-(8-chloronaphthalen-1-yl)-2-{[(2S,4S)-4-{4-[4-({4-[3-(5-ethyl-2,4-dihydroxyphenyl)-5-hydroxy-1,2,4-triazol-4-yl]phenyl}methyl)piperazine-1-carbonyl]piperidin-1-yl}-1-methylpyrrolidin-2-yl]methoxy}-5H,6H,8H-pyrido[3,4-d]pyrimidin-4-yl]-1-(prop-2-enoyl)piperazin-2-yl]acetonitrile], the IC50 at HSP90a protein and at KRAS(G12C) [2] was less than 0.1 µM in each case. Further, in experiment [1], the EC50 was more than 1 µM. The molecule further yielded a DC50 at KRAS(G12C) [3] of more than 1 µM.
For `C=CC(=O)N1CCN(c2nc(OCC3CN(Cc4ccc(-n5c(O)nnc5-c5cc(C(C)C)c(O)cc5O)cc4)C3)nc3c2CCN(c2cccc4cccc(Cl)c24)C3)C[C@@H]1CC#N` [Compound 231, (S)-2-(1-acryloyl-4-(7-(8-chloronaphthalen-1-yl)-2-((1-(4-(3-(2,4-dihydroxy-5-isopropylphenyl)-5-hydroxy-4H-1,2,4-triazol-4-yl)benzyl)azetidin-3-yl)methoxy)-5,6,7,8-tetrahydropyrido[3,4-d]pyrimidin-4-yl)piperazin-2-yl)acetonitrile], the figures for the IC50 on HSP90a protein and on KRAS(G12C) [2] were less than 0.1 µM and 0.1 to 1 µM, respectively. In experiment [1], this molecule showed an EC50 of more than 1 µM. In addition, the DC50 on KRAS(G12C) [3] was more than 1 µM.
On to `C=CC(=O)N1CCN(c2nc(OC[C@@H]3C[C@H](C(=O)NCCOCCOc4ccc(-n5c(O)nnc5-c5cc(CC)c(O)cc5O)cc4)CN3C)nc3c2CCN(c2cccc4cccc(Cl)c24)C3)C[C@@H]1CC#N` [Compound 349, (3S,5S)-5-({[7-(8-chloronaphthalen-1-yl)-4-[(3S)-3-(cyanomethyl)-4-(prop-2-enoyl)piperazin-1-yl]-5H,6H,8H-pyrido[3,4-d]pyrimidin-2-yl]oxy}methyl)-N-[2-(2-{4-[3-(5-ethyl-2,4-dihydroxyphenyl)-5-hydroxy-1,2,4-triazol-4-yl]phenoxy}ethoxy)ethyl]-1-methylpyrrolidine-3-carboxamide], for which the IC50 at HSP90a protein and at KRAS(G12C) [2] was less than 0.1 µM in each case. The molecule further gave an EC50 in experiment [1] of more than 1 µM. Further, the DC50 at KRAS(G12C) [3] was 0.1 to 1 µM.
As for `C=CC(=O)N1CCN(c2nc(OCCN3CCN(C(=O)C4CCN(Cc5ccc(-n6c(O)nnc6-c6cc(C)c(O)cc6O)cc5)CC4)CC3)nc3c2CCN(c2cccc4cccc(Cl)c24)C3)C[C@@H]1CC#N` [Compound 223, (S)-2-(1-acryloyl-4-(7-(8-chloronaphthalen-1-yl)-2-(2-(4-(1-(4-(3-(2,4-dihydroxy-5-methylphenyl)-5-hydroxy-4H-1,2,4-triazol-4-yl)benzyl)piperidine-4-carbonyl)piperazin-1-yl)ethoxy)-5,6,7,8-tetrahydropyrido[3,4-d]pyrimidin-4-yl)piperazin-2-yl)acetonitrile], the IC50 at HSP90a protein and at KRAS(G12C) [2] was less than 0.1 µM each time. The concentration giving a half-maximal response (EC50) in experiment [1] was more than 1 µM. At KRAS(G12C) [3], this molecule gave a DC50 of 0.1 to 1 µM.
In the case of `C=C(F)C(=O)N1CCN(c2nc(OCCN3CCN(C(=O)C4CCN(Cc5ccc(-n6c(O)nnc6-c6cc(C(C)C)c(O)cc6O)cc5)CC4)CC3)nc3c2CCN(c2cccc4cccc(Cl)c24)C3)C[C@@H]1CC#N` [Compound 224, (S)-2-(4-(7-(8-chloronaphthalen-1-yl)-2-(2-(4-(1-(4-(3-(2,4-dihydroxy-5-isopropylphenyl)-5-hydroxy-4H-1,2,4-triazol-4-yl)benzyl)piperidine-4-carbonyl)piperazin-1-yl)ethoxy)-5,6,7,8-tetrahydropyrido[3,4-d]pyrimidin-4-yl)-1-(2-fluoroacryloyl)piperazin-2-yl)acetonitrile], the results for the IC50 on HSP90a protein and on KRAS(G12C) [2] were less than 0.1 µM and more than 1 µM, respectively. Further, the concentration for a half-maximal effect (EC50) in experiment [1] was 0.1 to 1 µM. The DC50 at KRAS(G12C) [3] was more than 1 µM.
`C=CC(=O)N1CCN(c2nc(OCCN3CCN(Cc4ccc(-n5c(O)nnc5-c5cc(C(C)C)c(O)cc5O)cc4)CC3)nc3c2CCN(c2cccc4cccc(Cl)c24)C3)C[C@@H]1CC#N` [Compound 351, 2-[(2S)-4-[7-(8-chloronaphthalen-1-yl)-2-{2-[4-({4-[3-(2,4-dihydroxy-5-isopropylphenyl)-5-hydroxy-1,2,4-triazol-4-yl]phenyl}methyl)piperazin-1-yl]ethoxy}-5H,6-H,8H-pyrido[3,4-d]pyrimidin-4-yl]-1-(prop-2-enoyl)piperazin-2-yl]acetonitrile]: the IC50 at HSP90a protein and at KRAS(G12C) [2] was less than 0.1 µM throughout. The molecule further registered an EC50 in experiment [1] of 0.1 to 1 µM. The molecule further came in with a DC50 on KRAS(G12C) [3] of 0.1 to 1 µM.

These data come from patent US20230391772A1, “METHODS AND COMPOSITIONS FOR TARGETED PROTEIN DEGRADATION” (Ranok Therapeutics (Hangzhou) Co. Ltd., priority 2020, published 2023).
